Laboratory results reported in patent US20240011027A1, “METHODS AND COMPOSITIONS FOR RESTORING STMN2 LEVELS” (President and Fellows of Harvard College, priority 2020, published 2024).
Where a SMILES comes first, the peptide text is derived from it. The star is where a group is joined. Cbz = O=C(OCc1ccccc1)*

Columns and labels:
Assay type in all cases: cell-based, human
STMN2 RNA = assay: qRT-PCR of full-length STMN2 after proteasome inhibition with MG-132 in patient's motor neurons; conditions: MG-132 (1 uM); patient's neurons
Text: It was established that ASO (SJ+94) and ASO (SJ-1) suppressed cryptic splicing of STMN2 and restored full length STMN2 RNA in the patient's motor neurons when there is a reduction in nuclear TDP-43. […] Post-mortem tissue studies have shown that TDP-43 mis-localization and its aggregation in cytoplasm is a hallmark of sporadic ALS. Several groups have reported cytoplasmic aggregation of TDP-43 akin to that observed in post-mortem tissue of sporadic ALS patients occurs in response to pharmacological inhibition of the proteasome (1, 4).

proteasome = proteasome activity assay in hMNs treated with MG-132; conditions: overnight 1 μM treatment
TDP-43 [1] = assay: TDP-43 localization by immunostaining, Pearson's correlation with DAPI, after MG-132 pulse-chase
Description: For immunofluorescence, cells were fixed with ice-cold 4% PFA for 15 minutes at 4° C., permeabilized with 0.2% Triton-X in lx PBS for 45 minutes and blocked with 10% donkey serum in lx PBS-T (0.1% Tween-20) for 1 hour. Cells were then incubated overnight at 4° C. with primary antibody (diluted in blocking solution). At least 4 washes (5 min incubation each) with 1×PBS-T were carried out, before incubating the cells with secondary antibodies for 1 hour at room temperature (diluted in blocking solution). Nuclei were stained with DAPI. The following antibodies were used in this study: Hb9 (1:100, DSHB, MNR2 81.5C10-c), TUJ1 (1:1000, Sigma, T2200), MAP2 (1:10000, Abcam ab5392), Ki67 (1:400, Abcam, ab833), GFP (1:500, Life Technologies™, A10262), Islet1 (1:500, Abcam ab20670), TDP-43 (1:500, ProteinTech Group), STMN2 (1:4000, Novus), AlexaFluor™ 647-Phalloidin (1:200,). Secondary antibodies used (488, 555, 594, and 647) were AlexaFluor™ (1:1000, Life Technologies™) and DyLight (1:500, Jackson ImmunoResearch Laboratories). Micrographs were analyzed using FIJI software to determine the correlation coefficient.

TDP-43 [2] = assay: immunoblot of TDP-43 in detergent-soluble (RIPA) and detergent-insoluble (UREA) fractions after MG-132
Description: (§1) To determine what happened to TDP-43 after proteasome inhibition, TDP-43 levels were examined by immunoblot analysis in both the detergent-soluble and detergent-insoluble fractions. […] Finally, STMN2 levels in neurons treated with either a short-term high dose or a long-term low dose of MG-132 were probed.
For analysis of TDP-43 and STMN2 protein expression levels, d10 MNs were lysed in RIPA buffer (150 mM Sodium Chloride; 1% Triton X-100; 0.5% sodium deoxycholate; 0.1% SDS; 50 mM Tris pH 8.0) containing protease and phosphatase inhibitors (Roche) for 20 min on ice, and centrifuged at high speed. 200 μL of RIPA buffer per well of 24-well culture were routinely used, which yielded ˜20 μg of total protein as determined by BCA (Thermo Scientific). After two washes with RIPA buffer, insoluble pellets were resuspended in 200 μl of UREA buffer (Bio-Rad). For immunoblot assays 2-3 μg of total protein were separated by SDS-PAGE (BioRad), transferred to PDVF membranes (BioRad) and probed with antibodies against TDP-43 (1:1000, ProteinTech Group), GAPDH (1:1000, Millipore) and STMN2 (1:3000, Novus). Insoluble pellets were loaded based on protein concentration of correspondent RIPA-soluble counterparts. […] GAPDH levels were used to normalized each sample, and LiCor software was used to quantitate protein band signal.

STMN2 [3] = assay: qRT-PCR of STMN2 expression in hMNs treated with proteasome inhibitors; conditions: short-term high dose or long-term low dose
Description: as §1
Total RNA was isolated from d10 MNs for RNA-Seq experiments and validation assays using Trizol LS (Invitrogen) according to manufacturer's instructions. 500 μL were added per well of the 24-well cultures. A total of 300-1000 ng of total RNA was used to synthesize cDNA by reverse transcription according to the iSCRIPT kit (Bio-rad). Quantitative RT-PCR (qRT-PCR) was then performed using SYBR green (Bio-Rad) and the iCycler system (Bio-rad). Quantitative levels for all genes assayed were normalized using GAPDH expression. […] All primer sequences are available upon request. For next-generation RNA sequencing (RNA-Seq), at least two technical replicas per siRNA sample or AAVS1-TDP43 genotype were included in the analyses. After RNA extraction, samples with RNA integrity numbers (RIN) above 7.5, determined by a bioAnalyzer, were used for library preparation. […] All FASTQ files were analyzed using the bcbioRNASeq workflow and toolchain (90). […]

STMN2 [4] = assay: STMN2 mRNA expression in HUES3, IG2 (Stmn2 KO) and CN7 (cryptic exon deletion) lines stressed with MG132; conditions: 1 uM for 24 hours
Description: Three cell lines, HUES3, IG2 (Stmn2 KO), and CN7 (cryptic exon deletion) were treated with normal media or media+1 uM MG132 for 24 hours to stress the cells. In HUES3 cells, the stressed condition had 52% STMN2 mRNA expression compared to the unstressed condition. In IG2 (Stmn2 KO) condition, unstressed cells had 13% expression, and when stressed, expression increased to 42%. […] It was shown that if several exons are knocked out the expression goes down, but if the TDP-43 binding site is removed, expression goes way up.

STMN2 cryptic exon = assay: RT-PCR detection of transcripts containing the STMN2 cryptic exon in hMNs treated with proteasome inhibitors
Description: It was then asked if cryptic exon inclusion could be contributing to decreased STMN2 levels in hMNs after proteasome inhibition. To accomplish this goal, an RT-PCR assay was developed to detect transcripts containing the cryptic exon (FIG. 5F). […] Total RNA was isolated from neurons using RNeasy Mini Kit (Qiagen) according to manufacturer's instructions. A total of 300-1000 ng of total RNA was used to synthesize cDNA by reverse transcription according to the iSCRIPT kit (Bio-rad). RT-PCR was then performed using one cryptic exon-specific primer and then analyzed using the Agilent 2200 Tapestation.

CC(C)C[C@@H](C=O)NC(=O)[C@H](CC(C)C)NC(=O)[C@H](CC(C)C)NC(=O)OCc1ccccc1 [MG-132] (Cbz-Leu-Leu-Leu-aldehyde)
STMN2 expression after proteasome inhibition (STMN2 RNA): decreased STMN2 expression | proteasome activity (proteasome): less than 10 % of normal activity | TDP-43 staining in the nucleus (TDP-43 [1]; 24 hour 1 μM pulse, hMNs): greatly diminished | TDP-43 staining following washout (TDP-43 [1]; after 24 hour 1 μM pulse and washout): indistinguishable to unchallenged neurons after 4 days | TDP-43 levels in soluble lysates (TDP-43 [2]; control neurons treated with a low dose): significantly decreased TDP-43 levels | TDP-43 in UREA (insoluble) fraction (TDP-43 [2]; proteasome inhibition): triggers TDP-43 to become insoluble | STMN2 mRNA levels (STMN2 [3]): significant decreases | STMN2 mRNA expression (STMN2 [4]; CN7 (Cryptic Exon Deletion) cells, unstressed 729%): 473% | STMN2 mRNA expression compared to the unstressed condition (STMN2 [4]; HUES3 cells): 52% | STMN2 mRNA expression (STMN2 [4]; IG2 (Stmn2 KO) cells, unstressed 13%): 42% | transcripts containing the STMN2 cryptic exon (PCR assay) (STMN2 cryptic exon): presence of transcripts containing the STMN2 cryptic exon
